Series [1] has as its system homomeric and heteromeric TASK channels. Description: Whole-cell recording, statements across all tested TASK channel constructs. Type of series: cell-based.
The subject of series [2] is wild-type C57BL/6 mice. The following applies: for seizure incidence (N=seizure/total) / seizure incidence (% of mice) / seizure duration (typical) / EC50 for induction of seizures: iv; for EC50 for induction of seizures: wild type mice, quantal dose-response.
Series [3] relates to wild-type mice. Kind of series: Electroencephalogram recording of bupivacaine-induced seizures, wild type mice. Type of series: in vivo. The following applies: control (wild type) mice, two lower bupivacaine doses, n=6.
Series [4] relates to TASK−/− mice. Type of series: in vivo. The following applies: two lower bupivacaine doses, n=6.
For series [5], the system named is TASK-1−/−:TASK-3−/− double knockout mice. As to conditions: for EC50 for induction of seizures / seizure duration (typical): iv.
For series [6], the target named is TASK-1/TASK-3 heterodimeric channels (Rattus norvegicus, UniProt O54912+Q9ES08). Type of series: cell-based. The following applies: exemplar cell.
Where [7] appears, read: C57BL/6, mouse, in vivo, 2.5 mg/kg.
[8] abbreviates: C57BL/6, mouse, in vivo, 3.75 mg/kg.
[9] abbreviates: C57BL/6, mouse, in vivo, 5 mg/kg.
Setting [10] is: C57BL/6, mouse, in vivo, 6.25 mg/kg.
The mark [11] stands for this setting: C57BL/6, mouse, in vivo, 7.5 mg/kg.
Setting [12] is: C57BL/6 background (TASK-1−/−:TASK-3−/− double knockout), mouse, in vivo.
Where [13] appears, read: TASK−/− mice, quantal dose-response.
Where [14] appears, read: C57BL/6, mouse, in vivo, 10 mg/kg.

Read-outs that look alike come from different tables or passages of the source.

Chain of TASK-1/TASK-3 heterodimeric channels (O54912 whole entry): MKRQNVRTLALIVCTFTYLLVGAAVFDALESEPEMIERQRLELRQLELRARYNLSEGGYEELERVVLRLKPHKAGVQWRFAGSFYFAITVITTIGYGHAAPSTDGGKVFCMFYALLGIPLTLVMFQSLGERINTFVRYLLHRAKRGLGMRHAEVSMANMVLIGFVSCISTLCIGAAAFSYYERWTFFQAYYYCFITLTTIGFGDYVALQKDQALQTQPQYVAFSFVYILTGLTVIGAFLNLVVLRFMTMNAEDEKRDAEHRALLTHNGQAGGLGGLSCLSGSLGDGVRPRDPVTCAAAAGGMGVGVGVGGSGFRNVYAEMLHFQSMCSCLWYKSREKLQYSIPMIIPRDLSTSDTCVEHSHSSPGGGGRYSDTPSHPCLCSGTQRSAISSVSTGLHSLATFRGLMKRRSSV
Chain of TASK-1/TASK-3 heterodimeric channels (Q9ES08 whole entry): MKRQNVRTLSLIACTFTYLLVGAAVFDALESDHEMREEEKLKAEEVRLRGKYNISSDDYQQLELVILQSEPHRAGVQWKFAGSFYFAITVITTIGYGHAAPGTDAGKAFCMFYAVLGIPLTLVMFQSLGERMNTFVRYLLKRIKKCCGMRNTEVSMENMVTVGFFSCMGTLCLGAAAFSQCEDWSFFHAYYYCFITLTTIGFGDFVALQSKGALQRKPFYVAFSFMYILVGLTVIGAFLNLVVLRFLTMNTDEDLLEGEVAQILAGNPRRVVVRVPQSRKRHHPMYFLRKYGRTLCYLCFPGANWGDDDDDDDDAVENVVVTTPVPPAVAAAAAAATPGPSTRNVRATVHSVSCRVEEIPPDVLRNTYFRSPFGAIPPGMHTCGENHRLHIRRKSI

As to `CCCCN1CCCCC1C(=O)Nc1c(C)cccc1C` (centres unmarked) [bupivacaine], in series [1], the “fold more potent than lidocaine for TASK channel inhibition” value is given as 3.1- to 4.4 fold. The “fold more potent than ropivacaine for TASK channel inhibition” value in series [1] (across TASK channels) is listed as 1.4- to 1.7 fold. In addition, the “fold more potent for induction of seizures than ropivacaine” value is ~ 1.4 fold in series [2] (C57BL/6, mouse, in vivo) and ~ 1.4 fold in series [5] (setting [12]). For the same compound, the “seizure incidence (N=seizure/total)” value in series [2] (setting [7]) is on record as 1/14; in series [2] (setting [9]), 14/14; in series [2] (setting [10]), 12/12; in series [2] (setting [11]), 4/4. Further, the “seizure incidence (% of mice)” value in series [2] (setting [8]) is reported as ~ 71%. In addition, in series [2] (mouse, in vivo), the “seizure duration (typical)” value is “significantly longer in duration”. Moreover, the “EC50 for induction of seizures” value was determined as 3.4 ± 0.1 mg/kg in series [2] and 4.5 ± 0.1 mg/kg in series [5] (setting [13]). The “electroencephalogram peak frequency during seizures” value is 3.4 ± 0.4 Hz in series [3] and ~ 4.4 ± 0.2 Hz in series [4].

`CCCN1CCCC[C@H]1C(=O)Nc1c(C)cccc1C` [ropivacaine]: the “seizure duration (typical)” value is < 150 s in series [2] (C57BL/6, mouse, in vivo) and < 150 s in series [5] (setting [12]). The “seizure incidence (N=seizure/total)” value in series [2] (setting [7]) is 0/14; in series [2] (setting [8]), 0/14; in series [2] (setting [9]), 10/14; in series [2] (setting [10]), 14/14; in series [2] (setting [11]), 11/11; in series [2] (C57BL/6, mouse, in vivo, 8.75 mg/kg), 9/9. Besides, in series [2] (setting [14]), the “seizure incidence (N=seizure/total)” value is given as 3/3. For the same compound, the “seizure incidence (% of mice)” value in series [2] (setting [9]) was ~ 72%. The “EC50 for induction of seizures” value is listed as 4.7 ± 0.1 mg/kg in series [2] and 6.0 ± 0.2 mg/kg in series [5] (setting [13]).

In the case of picrotoxin, the “decrease in current amplitude (averaged, non-significant)” value in series [1] (all tested TASK channel constructs, 50, 100 & 300 μM) was ≤ 13%. The “EC50 for induction of seizures” value in series [2] and in series [5] (setting [13]) was ~ 1.0 mg/kg in each case. Moreover, the “effect on peak TASK-1/TASK-3 current” value in series [6] (100 μM) is “no discernible effect”. The “decrease in peak TASK-1/TASK-3 current” value in series [6] (300 μM) was < 10%.

With `CCN(CC)CC(=O)Nc1c(C)cccc1C` [lidocaine], the “seizure duration (typical)” value in series [2] (C57BL/6, mouse, in vivo) is < 25 s; in series [5] (setting [12]), < 25 s. Moreover, the “seizure incidence (N=seizure/total)” value in series [2] (setting [9]) is 0/15; in series [2] (setting [14]), 4/15; in series [2] (C57BL/6, mouse, in vivo, 15 mg/kg), 10/15; in series [2] (C57BL/6, mouse, in vivo, 17.5 mg/kg) it was 13/15. In series [5] (mouse, in vivo), the “EC50 for induction of seizures” value was found to be 17.3 ± 1.0 mg/kg.
